From patent publication US10052306B2 (LUC THERAPEUTICS, INC., priority 2013, dated 2018)
Where two headings read alike, the source gives them in different places.

Experiments:
[1] = target: NR1/NR2B (Homo sapiens (Human), UniProt Q13224); experiment: Cell assay: FDSS Ca2+ influx inhibition in HEK293 cells expressing NR1/NR2B; settings: read-out: NR2B NAM IC50;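 also: Fluo-8 Ca2+ signal read on Hamamatsu FDSS 6000 after glutamate, glycine and Ca2+ challenge following 10 min compound preincubation, end/baseline fluorescence ratio compared with MK801 control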
Chain of NR1/NR2B (Homo sapiens (Human), UniProt Q13224) (Q13224 27-1484, other chains not shown): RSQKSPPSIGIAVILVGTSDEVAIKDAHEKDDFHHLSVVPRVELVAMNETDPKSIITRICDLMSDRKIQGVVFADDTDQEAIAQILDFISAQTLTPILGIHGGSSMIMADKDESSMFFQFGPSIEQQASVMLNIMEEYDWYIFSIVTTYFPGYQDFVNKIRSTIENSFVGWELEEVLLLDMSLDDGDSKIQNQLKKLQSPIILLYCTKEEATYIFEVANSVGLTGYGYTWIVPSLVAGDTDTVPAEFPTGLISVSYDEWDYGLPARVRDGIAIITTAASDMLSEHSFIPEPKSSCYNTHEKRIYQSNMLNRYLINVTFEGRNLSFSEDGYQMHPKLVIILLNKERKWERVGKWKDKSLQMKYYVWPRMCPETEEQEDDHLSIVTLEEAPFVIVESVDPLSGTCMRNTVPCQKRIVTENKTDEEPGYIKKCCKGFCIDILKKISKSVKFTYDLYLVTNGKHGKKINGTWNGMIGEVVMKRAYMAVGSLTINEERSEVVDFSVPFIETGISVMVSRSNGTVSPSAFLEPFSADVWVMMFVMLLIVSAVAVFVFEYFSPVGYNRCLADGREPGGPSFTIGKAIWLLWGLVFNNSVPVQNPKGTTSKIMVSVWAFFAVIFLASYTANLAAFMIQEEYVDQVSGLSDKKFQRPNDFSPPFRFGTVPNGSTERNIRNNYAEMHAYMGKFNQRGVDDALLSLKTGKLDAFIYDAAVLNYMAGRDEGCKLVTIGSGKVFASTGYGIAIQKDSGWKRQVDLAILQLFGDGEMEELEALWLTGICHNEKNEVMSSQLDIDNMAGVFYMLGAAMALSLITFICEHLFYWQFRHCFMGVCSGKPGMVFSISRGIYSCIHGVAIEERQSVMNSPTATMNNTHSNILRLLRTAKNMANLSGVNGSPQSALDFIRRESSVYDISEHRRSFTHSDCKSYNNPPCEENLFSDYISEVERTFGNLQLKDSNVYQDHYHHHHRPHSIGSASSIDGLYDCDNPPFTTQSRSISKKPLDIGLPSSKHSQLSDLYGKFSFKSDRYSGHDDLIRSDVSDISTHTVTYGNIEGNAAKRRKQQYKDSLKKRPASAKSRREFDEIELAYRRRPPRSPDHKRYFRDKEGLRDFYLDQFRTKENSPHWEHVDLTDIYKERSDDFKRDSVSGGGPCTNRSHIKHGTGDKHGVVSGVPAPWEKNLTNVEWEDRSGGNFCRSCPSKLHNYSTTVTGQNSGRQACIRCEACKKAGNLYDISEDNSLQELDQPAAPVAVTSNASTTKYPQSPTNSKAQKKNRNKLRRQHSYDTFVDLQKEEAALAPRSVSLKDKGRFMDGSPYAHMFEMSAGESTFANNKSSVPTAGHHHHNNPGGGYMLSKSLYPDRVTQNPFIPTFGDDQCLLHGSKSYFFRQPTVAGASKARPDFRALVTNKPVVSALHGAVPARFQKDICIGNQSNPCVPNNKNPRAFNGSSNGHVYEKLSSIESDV

[2] = target: NR1/NR2B (Homo sapiens (Human), UniProt Q05586+Q13224); experiment: as above; settings: Binned Activity
Chain of NR1/NR2B (Homo sapiens (Human), UniProt Q05586+Q13224) (Q13224 27-1484, other chains not shown): as above

[3] = HEK293 cells expressing NR1/NR2B, Ca2+ influx
[4] = HEK293 cells expressing NR1/NR2B, Ca2+ influx, binned NR2B NAM IC50

Row | Structure (SMILES) | IC50 [1, 3] [µM] | IC50 [2, 4] [µM] | IC50 [1] [µM] | IC50 [2] [µM]
1 | CC(C)(C)c1ccc([C@]2(O)C[C@H]3CN(c4ccccn4)C[C@H]3C2)cc1 [Example 88, 5-(4-tert-butylphenyl)-2-(pyridin-2-yl)-octahydrocyclopenta[c] pyrrol-5-ol] | 10 | > 10 |  | 
2 | COc1ccc(C)cc1NC(=O)N1C[C@@H]2C[C@@](O)(c3ccccc3)C[C@@H]2C1 [Example 27, 5-hydroxy-N-(2-methoxy-5-methylphenyl)-5-phenyl-octahydrocyclopenta[c] pyrrole-2-carboxamide] |  |  | 10 | > 10
3 | Oc1ccc([C@H](O)CN2C[C@@H]3C[C@@](O)(Cc4ccccc4)C[C@@H]3C2)cc1 [Example 137, (3aR,5S,6aS)-5-benzyl-2-((S)-2-hydroxy-2-(4-hydroxyphenyl)ethyl)octa-hydrocyclopenta[c]pyrrol-5-ol] | 0.0204 | < 0.1 |  | 
4 | COc1ccc(C)cc1NC(=O)N1C[C@@H]2C[C@@](O)(c3ccc(F)cc3)C[C@@H]2C1 [Example 42] | 10 | > 10 |  | 
5 | COc1ccc(C(=O)CN2C[C@@H]3C[C@@](O)(Cc4ccccc4)C[C@@H]3C2)cc1 [Example 132, 2-((3aR,5r,6aS)-5-benzyl-5-hydroxyhexahydrocyclo-penta[c]pyrrol-2(1H)-yl)-1-(4-methoxyphenyl)ethanone] | 10 | > 10 |  | 
6 | COc1ccc(-c2cccc(C(=O)CN3C[C@@H]4C[C@@](O)(Cc5ccccc5)C[C@@H]4C3)c2)cc1 [Example 263, 2-((3aR,5r,6aS)-5-benzyl-5-hydroxyhexahydrocyclo-penta[c]pyrrol-2(1H)-yl)-1-(4′-methoxy-[1,1′-biphenyl]-3-yl)ethanone] | 10 | > 10 |  | 
7 | CO[C@@]1(Cc2ccccc2)C[C@H]2CN(CC(=O)c3ccc(O)c(F)c3)C[C@H]2C1 [Example 170, 2-((3aR,5r,6aS)-5-benzyl-5-methoxyhexahydrocyclo-penta[c]pyrrol-2(1H)-yl)-1-(3-fluoro-4-hydroxyphenyl)ethanone] | 0.132 | 0.1 to 1 |  | 
8 | Cc1ccc(NC(=O)N2C[C@@H]3C[C@@](O)(Cc4ccccc4)C[C@@H]3C2)cc1 [Example 125, (3aR,5r,6aS)-5-benzyl-5-hydroxy-N-(p-tolyl) hexahydrocyclopenta [c]pyrrole-2(1H)-carboxamide] | 10 | > 10 |  | 
9 | COc1cccc([C@]2(O)C[C@H]3CN(C(=O)Nc4cc(C)ccc4OC)C[C@H]3C2)c1 [Example 33, 5-hydroxy-N-(2-methoxy-5-methylphenyl)-5-(3-methoxyphenyl)-octahydrocyclopenta[c] pyrrole-2-carboxamide] | 10 | > 10 |  | 
10 | Cc1ccccc1-c1cccc(C(=O)CN2C[C@@H]3C[C@@](O)(Cc4ccccc4)C[C@@H]3C2)c1 [Example 278, 2-((3aR,5r,6aS)-5-benzyl-5-hydroxyhexahydrocyclo-penta[c]pyrrol-2(1H)-yl)-1-(2′-methyl-[1,1′-biphenyl]-3-yl)ethanone] | 10 | > 10 |  | 
11 | O=C(CN1C[C@@H]2C[C@@](O)(Cc3ccccc3Cl)C[C@@H]2C1)c1ccc(O)cn1 [Example 234, 2-((3aR,5r,6aS)-5-(2-chlorobenzyl)-5-hydroxyhexahydrocyclo-penta[c]pyrrol-2(1H)-yl)-1(5-hydroxypyridin-2-yl)ethanone] | 1.99 | 1 to 10 |  | 
12 | O[C@@]1(c2ccc(F)cc2)C[C@H]2CN(c3cccc(C(F)(F)F)n3)C[C@H]2C1 [Example 81, 5-(4-fluorophenyl)-2-[6-(trifluoromethyl)pyridin-2-yl]-octahydrocyclopenta[c] pyrrol-5-ol] | 10 | > 10 |  | 
13 | O=C(Nc1cccc(C(F)(F)F)c1)N1C[C@H]2C[C@@H](c3ccccc3)C[C@H]2C1 [Example 105, 5-phenyl-N-[3-(trifluoromethyl)phenyl]-octahydrocyclopenta[c] pyrrole-2-carboxamide] | 10 | > 10 |  | 
14 | O=C(Nc1cccnc1)N1C[C@H]2C[C@@H](c3ccccc3)C[C@H]2C1 [Example 111, 5-phenyl-N-(pyridin-3-yl)-octahydrocyclopenta[c] pyrrole-2-carboxamide] | 10 | > 10 |  | 
15 | CO[C@@]1(Cc2ccccc2)C[C@H]2CN(CC(=O)c3ccc(O)c(F)n3)C[C@H]2C1 [Example 197, 2-((3aR,5r,6aS)-5-benzyl-5-methoxyhexahydrocyclo-penta[c]pyrrol-2(1H)-yl)-1-(6-fluoro-5-hydroxypyridin-2-yl)ethanone] | 10 | > 10 |  | 
16 | Cc1ccccc1[C@]1(O)C[C@H]2CN(c3cccc(C(F)(F)F)n3)C[C@H]2C1 [Example 84, 5-(2-methylphenyl)-2-[6-(trifluoromethyl)pyridin-2-yl]-octahydrocyclopenta[c] pyrrol-5-ol] | 10 | > 10 |  | 

Row | Structure (SMILES) | IC50 [1, 3] [µM] | IC50 [2, 4] [µM] | IC50 [1] [µM] | IC50 [2] [µM]
17 | O=C(CN1C[C@@H]2C[C@@](O)(Cc3ccccc3)C[C@@H]2C1)c1ccc(-c2cccc(F)c2)cc1 [Example 261, 2-((3aR,5r,6aS)-5-benzyl-5-hydroxyhexahydrocyclo-penta[c]pyrrol-2(1H)-yl)-1-(3′-fluoro-[1,1′-biphenyl]-4-yl)ethanone] | 10 | > 10 |  | 
18 | Oc1ccc(C(O)CN2C[C@H]3C[C@@H](c4ccccc4)C[C@H]3C2)cc1 (some centres unmarked) [Example 115, 4-(1-hydroxy-2-(5-phenylhexahydrocyclo-penta[c]pyrrol-2(1H)-yl)ethyl)phenol] | 10 | > 10 |  | 
19 | Cc1ccccc1C[C@]1(O)C[C@H]2CN(CC(=O)c3ccc(O)cc3)C[C@H]2C1 [Example 183, 2-((3aR,5r,6aS)-5-hydroxy-5-(2-methylbenzyl)hexahydro-cyclopenta[c]pyrrol-2(1H)-yl)-1-(4-hydroxyphenyl)ethanone] | 0.145 | 0.1 to 1 |  | 
20 | O=C(CN1C[C@@H]2C[C@@](O)(Cc3ccccc3F)C[C@@H]2C1)c1ccc(O)cc1 [Example 225, 2-((3aR,5r,6aS)-5-(2-fluorobenzyl)-5-hydroxyhexahydrocyclo-penta[c]pyrrol-2(1H)-yl)-1-(4-hydroxyphenyl)ethanone] | 0.0273 | < 0.1 |  | 
21 | Oc1ccc(C(O)CCN2C[C@@H]3C[C@@](O)(c4ccccc4)C[C@@H]3C2)cc1 (some centres unmarked) [Example 98, 2-(3-hydroxy-3-(4-hydroxyphenyl)propyl)-5-phenyloctahydrocyclopen-ta[c]pyrrol-5-ol] | 10 | > 10 |  | 
22 | O=C(CN1C[C@@H]2C[C@@](O)(Cc3ccc(C(F)(F)F)cc3)C[C@@H]2C1)c1ccc(O)cc1 [Example 219, 2-[(3aR,5R,6aS)-5-hydroxy-5-{[4-(trifluoromethyl)phenyl]methyl}-octahydrocyclopenta[c]pyrrol-2-yl]-1-(4-hydroxyphenyl)ethan-1-one] | 0.125 | 0.1 to 1 |  | 
23 | Cc1cccc(N2C[C@@H]3C[C@@](O)(c4ccccc4C)C[C@@H]3C2)n1 [Example 86, 5-(2-methylphenyl)-2-(6-methylpyridin-2-yl)-octahydrocyclopenta[c] pyrrol-5-ol] | 10 | > 10 |  | 
24 | CS(=O)(=O)Nc1ccc(C(=O)CN2C[C@@H]3C[C@@](O)(Cc4ccccc4)C[C@@H]3C2)nc1 [Example 235, N-(6-(2-((3aR,5r,6aS)-5-benzyl-5-hydroxyhexahydrocyclo-penta[c]pyrrol-2(1H)-yl)acetyl)pyridin-3-yl)methanesulfonamide] | 10 | > 10 |  | 
25 | O=C(Nc1ccc(F)cc1)N1C[C@@H]2C[C@@](O)(c3ccccc3)C[C@@H]2C1 [Example 6] | 10 | > 10 |  | 
26 | Oc1ccc([C@@H](O)CN2C[C@@H]3C[C@@](O)(Cc4ccc(F)cc4)C[C@@H]3C2)nc1 [Example 255, (3aR,5S,6aS)-5-(4-fluorobenzyl)-2-((S)-2-hydroxy-2-(5-hydroxypyridin-2-yl)ethyl)octahydrocyclo-penta[c]pyrrol-5-ol] | 0.024 | < 0.1 |  | 
27 | O=C(CN1C[C@@H]2C[C@@](O)(Cc3ccncc3)C[C@@H]2C1)c1ccc(O)cc1 [Example 226, 2-((3aR,5r,6aS)-5-hydroxy-5-(pyridin-4-ylmethyl)hexahydrocyclo-penta[c]pyrrol-2(1H)-yl)-1-(4-hydroxyphenyl)ethanone] | 3.89 | 1 to 10 |  | 
28 | O=C(Nc1cccc(Cl)c1)N1C[C@@H]2C[C@@](O)(Cc3ccccc3)C[C@@H]2C1 [Example 118, (3aR,5r,6aS)-5-benzyl-N-(3-chlorophenyl)-5-hydroxyhexahydrocyclo-penta[c]pyrrole-2(1H)-carboxamide] | 10 | > 10 |  | 
29 | O=C(CN1C[C@@H]2C[C@@](O)(Cc3ccc(Cl)cc3)C[C@@H]2C1)c1ccc(O)cn1 [Example 218, 2-((3aR,5r,6aS)-5-(4-chlorobenzyl)-5-hydroxyhexaydrocyclo-penta[c]pyrrol-2(1H)-yl)-1-(5-hydroxypyridin-2-yl)ethanone] | 0.374 | 0.1 to 1 |  | 
30 | Cc1ccc(NC(=O)N2C[C@H]3C[C@@H](c4ccccc4)C[C@H]3C2)c(C)c1 [Example 110, N-(2,4-dimethylphenyl)-5-phenyl-octahydrocyclopenta[c] pyrrole-2-carboxamide] | 10 | > 10 |  | 
31 | Cc1cccc(N2C[C@@H]3C[C@@](O)(c4ccc(F)cc4)C[C@@H]3C2)n1 [Example 87, 5-(4-fluorophenyl)-2-(6-methylpyridin-2-yl)-octahydrocyclopenta[c] pyrrol-5-ol] | 10 | > 10 |  | 
